Calls of active or inactive are those of the source. The rule behind the calls is not given here.
Key:
LNCaP [1] = experiment: Downregulation of TMPRSS2 expression in human LNCaP cells measured up to 5 uM incubated for 12 hrs by RT-qPCR analysis; format: functional, cell-based
[2] = Drug accumulation in male BALB/c mouse tumor implanted with human 22Rv1 cells at 0.3 mmol/L, iv measured at 1 to 24 hrs by LC-MS/MS analysis; format: ADME, organism-based, Neoplasm, CWR22R; details: in vivo, time 1-24 hrs
LNCaP [3] = experiment: Downregulation of FKB51 expression in human LNCaP cells measured up to 5 uM incubated for 12 hrs by RT-qPCR analysis; format: functional, cell-based
[4] = molecular target: T1, von Hippel-Lindau disease tumor suppressor/Androgen receptor (Homo sapiens, UniProt P10275+P40337); experiment: PROTAC activity at AR/VHL in human 22Rv1 cells assessed as induction of androgen receptor degradation at 1 uM measured for 6 hrs in presence of MG132 by Western blot analysis; format: cell-based
Target sequence in this assay (P10275 whole entry, looked up): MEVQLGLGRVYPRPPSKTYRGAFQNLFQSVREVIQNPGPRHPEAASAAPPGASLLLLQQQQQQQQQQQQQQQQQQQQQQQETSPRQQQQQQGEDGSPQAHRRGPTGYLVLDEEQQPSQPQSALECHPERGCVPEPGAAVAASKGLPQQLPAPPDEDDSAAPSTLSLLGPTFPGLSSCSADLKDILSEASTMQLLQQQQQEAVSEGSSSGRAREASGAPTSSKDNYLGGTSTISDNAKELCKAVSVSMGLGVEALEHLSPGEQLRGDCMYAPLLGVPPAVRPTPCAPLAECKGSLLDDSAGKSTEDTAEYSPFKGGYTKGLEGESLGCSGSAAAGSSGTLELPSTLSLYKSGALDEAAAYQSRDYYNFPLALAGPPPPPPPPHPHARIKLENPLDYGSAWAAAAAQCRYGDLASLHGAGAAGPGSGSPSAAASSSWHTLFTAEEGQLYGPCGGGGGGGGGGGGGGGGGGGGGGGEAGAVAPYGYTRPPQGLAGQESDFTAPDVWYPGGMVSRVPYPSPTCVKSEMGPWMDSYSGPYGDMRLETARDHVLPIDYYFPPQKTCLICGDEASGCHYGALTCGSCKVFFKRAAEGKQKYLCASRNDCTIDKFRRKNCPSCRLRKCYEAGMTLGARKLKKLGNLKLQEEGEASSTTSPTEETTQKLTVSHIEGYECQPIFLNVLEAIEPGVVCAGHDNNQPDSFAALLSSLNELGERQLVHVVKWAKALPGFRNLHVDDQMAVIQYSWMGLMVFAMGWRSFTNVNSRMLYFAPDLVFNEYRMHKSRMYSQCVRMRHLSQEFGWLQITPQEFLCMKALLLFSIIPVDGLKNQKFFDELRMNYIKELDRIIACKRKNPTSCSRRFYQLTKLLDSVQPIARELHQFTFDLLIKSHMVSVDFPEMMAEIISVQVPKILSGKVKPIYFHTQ
Target sequence in this assay (P40337 whole entry, looked up): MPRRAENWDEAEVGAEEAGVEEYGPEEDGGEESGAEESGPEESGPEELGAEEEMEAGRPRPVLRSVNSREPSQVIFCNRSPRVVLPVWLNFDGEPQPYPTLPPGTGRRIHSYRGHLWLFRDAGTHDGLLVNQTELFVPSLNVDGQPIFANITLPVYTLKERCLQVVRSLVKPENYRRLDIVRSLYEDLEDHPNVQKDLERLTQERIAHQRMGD

[5] = molecular target: T1, von Hippel-Lindau disease tumor suppressor/Androgen receptor; experiment: PROTAC activity at AR/VHL in human MCF7 cells assessed as effect on AR level measured for 12 hrs by Western blot analysis; format: cell-based
Target sequence in this assay (P10275 whole entry): as the sequence (P10275 whole entry, looked up) above
Target sequence in this assay (P40337 whole entry): as the sequence (P40337 whole entry, looked up) above

[6] = molecular target: T1, von Hippel-Lindau disease tumor suppressor/Androgen receptor; experiment: PROTAC activity at AR/VHL in human LNCaP cells assessed as induction of androgen receptor degradation at 1 uM measured for 6 hrs in presence of PSMA ligand by Western blot analysis; format: cell-based
Target sequence in this assay (P10275 whole entry, looked up): as the sequence (P10275 whole entry, looked up) above
Target sequence in this assay (P40337 whole entry, looked up): as the sequence (P40337 whole entry, looked up) above

[7] = molecular target: T1, von Hippel-Lindau disease tumor suppressor/Androgen receptor; experiment: PROTAC activity at AR/VHL in human VCaP cells assessed as induction of androgen receptor degradation measured for 12 hrs by Western blot analysis; format: cell-based
[8] = molecular target: T1, von Hippel-Lindau disease tumor suppressor/Androgen receptor; experiment: PROTAC activity at AR/VHL in human MDA-MB-231 cells assessed as effect on AR level at 0.03 to 10 uM measured for 12 hrs by Western blot analysis; format: cell-based; details: dose 0.03-10 µM
Target sequence in this assay (P10275 whole entry, looked up): as the sequence (P10275 whole entry, looked up) above
Target sequence in this assay (P40337 whole entry, looked up): as the sequence (P40337 whole entry, looked up) above

[9] = molecular target: T1, von Hippel-Lindau disease tumor suppressor/Androgen receptor; experiment: PROTAC activity at AR/VHL in PSMA knockdown human LNCaP cells assessed as induction of androgen receptor degradation at 1 uM measured for 24 hrs by Western blot analysis; format: cell-based
Target sequence in this assay (P10275 whole entry, looked up): as the sequence (P10275 whole entry, looked up) above
Target sequence in this assay (P40337 whole entry, looked up): as the sequence (P40337 whole entry, looked up) above

[10] = molecular target: T1, von Hippel-Lindau disease tumor suppressor/Androgen receptor; experiment: PROTAC activity at AR/VHL in human VCaP cells assessed as induction of androgen receptor degradation at 0.03 to 3 uM measured for 12 hrs by Western blot analysis; format: cell-based; details: dose 0.03-3 µM
Target sequence in this assay (P10275 whole entry, looked up): as the sequence (P10275 whole entry, looked up) above
Target sequence in this assay (P40337 whole entry, looked up): as the sequence (P40337 whole entry, looked up) above

[11] = molecular target: T1, von Hippel-Lindau disease tumor suppressor/Androgen receptor; experiment: PROTAC activity at AR/VHL in human LNCaP cells assessed as induction of androgen receptor degradation at 0.03 to 3 uM measured for 12 hrs by Western blot analysis; format: cell-based; details: dose 0.03-3 µM
Target sequence in this assay (P10275 whole entry, looked up): as the sequence (P10275 whole entry, looked up) above
Target sequence in this assay (P40337 whole entry, looked up): as the sequence (P40337 whole entry, looked up) above

[12] = molecular target: T1, von Hippel-Lindau disease tumor suppressor/Androgen receptor; experiment: PROTAC activity at AR/VHL in human 22Rv1 cells assessed as induction of androgen receptor degradation measured for 12 hrs by Western blot analysis; format: cell-based
[13] = molecular target: T1, von Hippel-Lindau disease tumor suppressor/Androgen receptor; experiment: PROTAC activity at AR/VHL in human HEK293T cells assessed as effect on AR level measured for 12 hrs by Western blot analysis; format: cell-based
Target sequence in this assay (P10275 whole entry): as the sequence (P10275 whole entry, looked up) above
Target sequence in this assay (P40337 whole entry): as the sequence (P40337 whole entry, looked up) above

[14] = molecular target: T1, von Hippel-Lindau disease tumor suppressor/Androgen receptor; experiment: PROTAC activity at AR/VHL in human LNCaP cells assessed as induction of androgen receptor degradation at 1 uM measured for 6 hrs in presence of MLN4924 by Western blot analysis; format: cell-based
[15] = molecular target: T1, von Hippel-Lindau disease tumor suppressor/Androgen receptor; experiment: PROTAC activity at AR/VHL in human LNCaP cells assessed as induction of androgen receptor degradation at 1 uM measured for 6 hrs in presence of VH032 by Western blot analysis; format: cell-based
[16] = molecular target: T1, von Hippel-Lindau disease tumor suppressor/Androgen receptor; experiment: PROTAC activity at AR/VHL in human MDA-MB-231 cells assessed as effect on AR level measured for 12 hrs by Western blot analysis; format: cell-based
Target sequence in this assay (P10275 whole entry): as the sequence (P10275 whole entry, looked up) above
Target sequence in this assay (P40337 whole entry): as the sequence (P40337 whole entry, looked up) above

[17] = molecular target: T1, von Hippel-Lindau disease tumor suppressor/Androgen receptor; experiment: PROTAC activity at AR/VHL in human HEK293T cells assessed as effect on AR level at 0.03 to 10 uM measured for 12 hrs by Western blot analysis; format: cell-based; details: dose 0.03-10 µM
[18] = molecular target: T1, von Hippel-Lindau disease tumor suppressor/Androgen receptor; experiment: PROTAC activity at AR/VHL in human 22Rv1 cells assessed as induction of androgen receptor degradation at 1 uM measured for 6 hrs in presence of PSMA ligand by Western blot analysis; format: cell-based
[19] = molecular target: T1, von Hippel-Lindau disease tumor suppressor/Androgen receptor; experiment: PROTAC activity at AR/VHL in human 22Rv1 cells assessed as induction of androgen receptor degradation at 1 uM measured for 6 hrs in presence of MLN4924 by Western blot analysis; format: cell-based
[20] = Stability of the compound in PBS buffer measured up to 24 hrs by HPLC analysis; format: physicochemical; details: read-out: Stability
[21] = molecular target: T1, von Hippel-Lindau disease tumor suppressor/Androgen receptor; experiment: PROTAC activity at AR/VHL in human 22Rv1 cells assessed as induction of androgen receptor degradation at 1 uM measured for 6 hrs in presence of VH032 by Western blot analysis; format: cell-based
LNCaP [22] = experiment: Downregulation of PSA expression in human LNCaP cells measured up to 5 uM incubated for 12 hrs by RT-qPCR analysis; format: functional, cell-based
[23] = molecular target: T1, von Hippel-Lindau disease tumor suppressor/Androgen receptor; experiment: PROTAC activity at AR/VHL in human MCF7 cells assessed as effect on AR level at 0.03 to 10 uM measured for 12 hrs by Western blot analysis; format: cell-based; details: dose 0.03-10 µM
[24] = molecular target: T1, von Hippel-Lindau disease tumor suppressor/Androgen receptor; experiment: In vivo PROTAC activity at AR/VHL in BALB/c mouse xenografted with human LNCaP cells assessed as reduction in AR level in tumor at 1 mmol/L, iv measured for 3 days by Western blot analysis; format: functional, organism-based; details: time 3.0 day
[25] = molecular target: T1, von Hippel-Lindau disease tumor suppressor/Androgen receptor; experiment: PROTAC activity at AR/VHL in human LNCaP cells assessed as induction of androgen receptor degradation measured for 12 hrs by Western blot analysis; format: cell-based
[26] = molecular target: T1, von Hippel-Lindau disease tumor suppressor/Androgen receptor; experiment: PROTAC activity at AR/VHL in human 22Rv1 cells assessed as induction of androgen receptor degradation at 0.03 to 3 uM measured for 12 hrs by Western blot analysis; format: cell-based; details: dose 0.03-3 µM
[27] = molecular target: T1, von Hippel-Lindau disease tumor suppressor/Androgen receptor; experiment: PROTAC activity at AR/VHL in human LNCaP cells assessed as induction of androgen receptor degradation at 1 uM measured for 6 hrs in presence of MG132 by Western blot analysis; format: cell-based

SMILES: Cc1ncsc1-c1ccc(CNC(=O)[C@@H]2C[C@@H](OC(=O)CCOCCOCCOCCC(=O)NCCCC[C@H](NC(=O)N[C@@H](CCC(=O)O)C(=O)O)C(=O)O)CN2C(=O)[C@@H](NC(=O)CCCCCCCCCNC(=O)c2ccc(C(=O)N[C@H]3C(C)(C)[C@H](Oc4ccc(C#N)c(Cl)c4)C3(C)C)cc2)C(C)(C)C)cc1
- Activity (LNCaP [1]): Active
- Drug uptake [2]: Active
- Activity (LNCaP [3]): Active
- Activity [4]: Active
- DC50 [5]: > 5 µM
- Activity [6]: Active
- DC50 [7]: 0.0219 µM
- Activity ([7]; dose 0.03-10 µM): Dose-dependent-effect
- Activity [8]: Active
- Activity [9]: Active
- Activity [10]: Active
- Activity [11]: Active
- DC50 [12]: 0.0502 µM
- Activity ([12]; dose 0.03-10 µM): Dose-dependent-effect
- DC50 [13]: > 5 µM
- Activity [14]: Active
- Activity [15]: Active
- DC50 [16]: > 5 µM
- Activity [17]: Active
- Activity [18]: Active
- Activity [19]: Active
- remaining at 24 h [20]: > 90%
- Activity [21]: Active
- Activity (LNCaP [22]): Active
- Activity [23]: Active
- Activity [24]: Active
- DC50 [25]: 0.0444 µM
- Activity ([25]; dose 0.03-10 µM): Dose-dependent-effect
- Activity [26]: Active
- Activity [27]: Active

— ChEMBL document CHEMBL6177983, “PSMA-Guided PROTAC Degraders for Tumor-Specific Protein Degradation in Prostate Cancer” (J Med Chem, 2025)
